Measured values reported in US20030166004A1, “Endothelial-cell binding peptides for diagnosis and therapy” (priority 2001, published 2003).
Where two headings read alike, the source gives them in different places. Ends that are not written are not given here. * marks the point of attachment. Biotin = O=C1N[C@H]2[C@H](CS[C@H]2CCCCC(=O)*)N1

Experiments:
chicken aortic rings = assay: Aortic ring assay (chicken aortic rings in Matrigel, microvessel formation); assay type: cell-based; conditions: peptide 125 to 1000 μM, 2-3 days
Description: The aortic ring assay is a widely used in vitro assay for angiogenesis. Typically, rat aortas are sliced crosswise and placed in Matrigel. After three to five days, microvessel sprouting can be roughly quantified by manual counting or by using image analysis. The aortic ring assay is low-cost, easy to use, and offers many assays from a single animal. A relatively new variant uses embryonic chick aortic arches (see Muthukkaruppan et al., Proceedings of the American Association for Cancer Research Annual Meeting, 2000).
In this experiment, chicken aortic rings are embedded in Matrigel (BD BioCoat™ Matrigel™ or other equivalent products) in optimized MCDB-131 media (Sigma product number: M8537, or equivalent products from other vendors). From endothelial cells (EC) in the aortic intima, a complex network of branching and anastomosing microvessels develop interspersed with fibroblast as individual cells. In this assay the ability of the identified EC-binding peptides is tested for their abilities to inhibit EC branching and microvessel formation.
Chicken aortic branches were dissected and cleaned from 15 day old chicken embryos, and were then rinsed well in cold PBS+Penicillin/Streptomycin (P/S) buffers. The arteries were then cut into about 1 mm rings using sterile razor blade, and the resulting rings were mounted in 10-20 μl of Matrigel (in a 48-well plate). Subsequently, 300 μl of MCDB-131 basal media+P/S containing the indicated amount of test peptide were added. The cultured rings were incubated at 37° C., with 5% CO2 for 2-3 days, and the extent of microvessel formation were evaluated as the end of the experiment.

[1] = system: angiogenesis in Matrigel plug; assay: Mouse Matrigel plug assay (FGF-induced angiogenesis, hemoglobin content); assay type: in vivo; conditions: for inhibition of angiogenesis in the Matrigel plug assay (in words) / inhibition of angiogenesis: mouse Matrigel plug with FGF; for inhibition of angiogenesis: peptide in the plug versus FGF-only control plug, hemoglobin levels
Procedure: This assay takes advantage of the fact that Matrigel is liquid at 4° C. but becomes gel when warmed to 37° C. Thus when injected subcutaneously into the ventral region of a mouse, Matrigel solidifies and forms a so-called “Matrigel plug”. When angiogenic factors, such as FGF, are mixed with the Matrigel and injected, endothelial cells migrate into the gel plug and form functional vessels. The level of angiogenesis can then be assessed by measuring hemoglobin levels in the plugs, which are directly proportional to the extent of angiogenesis. Typically, two plugs are assayed in each mouse: one plug (control plug) contains FGF only and is used as control for angiogenesis, while the test plug contains FGF and an indicated amount of test peptide(s). In single-point assays, peptide concentration in the plug is 1 mM.
C57BL/6 female mice, 6-8 wks.
Basis FGF (bFGF) stock was prepared at 25 μg/ml in saline buffer +5% mouse serum albumin. The bFGF stock was added to Matrigel at 200 ng/ml. The mixture was left on ice for at least 3 hours before further use. For each mouse, 1 ml of such mixture was prepared, so that 0.5 ml of the mixture can be injected into each mouse to achieve about 100 ng/one side injection. If a test peptide were also to be added, for each mouse, 50 μl of 10 mM peptide (or 5 mM cRGD, positive control) was slowly added to Matrigel, swirling while adding. Per 5 mice, add 300 μl of peptide per 3 mls of Matrigel.
Syringes for injection were left on ice before injection. One syringe is used for each side of the group of 5 mice. About 1 ml of the mixture can be loaded at a time and injected into 2 mice using the Becton Dickinson 1 ml syringe for subcutaneous injection (26 gauge, ⅝ths, cat# 309597). Mice were anesthetized with isofluorane in a chamber, and were pulled out just as their breathing became slow. Injection were performed subcutaneously at inner thighs of the mice.
To determined the degree of angiogenesis, Matrigel plugs were dissected out, and placed in pre-weighed Falcon 5 ml snap-cap round bottomed tubes (polypropylene, Falcon cat# 352063). One ml of PBS was then added. The tubes were weighed with Matrigel plugs inside. The samples were kept at 4° C. until ready for hemoglobin assay.
Sonicate samples before measuring the hemoglobin content using the Plasma hemoglobin kit from Sigma.

[2] = system: aortic smooth muscle cells (AoSMC)
Description: (§1) We developed a cell-based saturation ligand binding assay to measure the specific binding of the isolated EC binding peptides to human microvascular endothelial cells (HMVEC) and aortic smooth muscle cells (AoSMC). This assay allows the determination of the relative binding affinities of the isolated EC binding peptides. The assay is based on the highly sensitive fluorescence enhancement technique DELFIA® and coated microtitration plates. In this assay the synthetic peptides labeled with biotin at their amino terminus are incubated with fixed target cells in microtiter plate format. After incubation, the excess, unbound peptides are removed and europium labeled streptavidin added to the plates. After the removal of excess streptavidin, the europium is released and its fluorescence is measured.
(§2) Saturation ligand binding experiments measure specific ligand binding at equilibrium at various concentrations of the ligand. Binding curves are analyzed to determine binding site or receptor number and affinity. This curve is known as a rectangular hyperbola, binding isotherm, or saturation binding curve. This curve is determined by the following equation: […]
(§3) Y is zero initially, and increases to a maximum plateau value, Bmax. This equation describes the equilibrium binding of a ligand to a receptor as a function of increasing ligand concentration. X is the concentration of the ligand, and Y is the specific binding. Kd is the equilibrium dissociation constant, expressed in the same units as the X-axis (concentration). When the drug concentration equals Kd, half the binding sites are occupied at equilibrium.
(§4) Streptavidin-Eu^3+ reagent (cat # 1244-105), reagent diluent (cat # 1244-111), and Enhancement Solution (cat # 1244-105) were purchased from Perkin Elmer-Wallac (Turku, Finland), and the plates were read on Wallac Victor counter. The binding constants were calculated using the method of nonlinear regression analysis with the Prizm software (GraphPad Software, Inc.).
(§5) The HMVEC (human microvascular endothelial cell) and aortic smooth muscle cells (AoSMC) cells were purchased from Clonetics (San Diego, Calif.) and maintained according to the specifications of the supplier. In these experiments the cultures were used from passages 5 and 6 only.
(§6) The cultured subconfluent cells were trypsinized and resuspended in the culture media according to Clonetics instructions. The diluted suspension was dispensed into a reagent reservoir with magnetic stirring bar. 50 μl of the cell suspension was dispensed into each well of the 96-well plate with the Multidrop while stirring the suspension. The seeding density was 5*10^3 cells/well. The plates are incubated at 37° C. in the atmosphere containing 5% CO2 for 48 hours.
(§7) The cells were then washed three times with TBS with 0.01%Tween20 (wash buffer) and fixed with 2% formalin solution for fifteen minutes at 20° C. The cells were subsequently washed three times with wash buffer. The nonspecific sites on the plates were blocked by 300 μl of Pierce Casein Blocker per well for two hours at 20° C.
(§8) The saturation binding assay was performed by adding 50μl of the biotinylated peptide per well at increasing concentrations. The concentration was ranging from 1 nM to 10 μM. All measurements were performed in triplicates. Peptide dilutions were prepared from 10 mM DMSO stocks in wash buffer. The plates were incubated for one hour at room temperature and subsequently washed five times with wash buffer using Titertek automatic plate washer to remove any unbound peptide. The biotinylated peptide bound to the cells was then allowed to react for thirty minutes with 50 μl of 2000× dilution of the streptavidin-Eu^3+ reagent, diluted in the Wallac reagent diluent. Finally, after washing the unbound streptavidin-Eu^3+ reagent, 50 μl of Wallac Enhancement Solution per well was added to release the free Eu^3+ from its chelate form. Free Eu^3+ rapidly forms a highly fluorescent stable chelate with the components of the Enhancement solution. […]

[3] = system: human microvascular endothelial cells (HMVEC); conditions: Cell Type HMVEC; for Binding Affinity: equals Bmax/Kd; for Kd: fixed cells, biotinylated peptide 1 nM to 10 μM
Description: as §1, §2, §3, §4, §5, §6, §7, §8

Row | Substance | inhibition of angiogenesis (microvessel formation) in the aortic ring assay (in words) (chicken aortic rings) | inhibition of angiogenesis in the Matrigel plug assay (in words) [1] | Binding Affinity [2] | Bmax (counts/cell) [2] | binding to AoSMC (in words) [2] | Bmax (counts/cell) [3] | Binding Affinity [3] | Kd [3] | inhibition of angiogenesis [1] | dose dependence of inhibition of angiogenesis ([1]; mouse Matrigel plug, three concentrations, n no less than 9) | Kd [2] | binding to smooth muscle cells compared with endothelial cells [2] | Bmax (counts/cell) ([2]; Cell Type AoSMC) | Binding Affinity ([2]; Cell Type AoSMC, equals Bmax/Kd) | Kd ([2]; Cell Type AoSMC, fixed cells, biotinylated peptide 1 nM to 10 μM)
1 | Biotin-GCDSHKRLKCG (cysteine pairing not given here) [9-G5] | tested positive | tested positive | −2.127 | 2.937 counts/cell | do not bind | 10.1138 counts/cell | 19.195 | 527 nM | – | – | – | – | – | – | –
2 | cRGD [reference compound] | – | – | – | – | – | – | – | – | 36% | – | – | – | – | – | –
3 | HTKQIPRHIYSA [1-H5] | tested positive | tested positive | – | – | – | – | – | – | 44% | linearly proportional to the concentration | – | – | – | – | –
4 | Biotin-GCTQMRTAYCG (cysteine pairing not given here) [7-D5] | – | – | 28.211 | 10.8332 counts/cell | – | 11.0211 counts/cell | 2.3116 | 4770 nM | – | – | 384 nM | binds better to smooth muscle cells than to endothelial cells | – | – | –
5 | Biotin-GCPTPHSGTCG (cysteine pairing not given here) [2-G9] | tested positive | tested positive | 57.639 | 8.519 counts/cell | – | 5.15 counts/cell | 166.12 | 31 nM | 57% | – | 148 nM | – | – | – | –
6 | Biotin-GCHSSTWRACG (cysteine pairing not given here) [2-C10] | tested positive | tested positive | −5.709 | 0.9694 counts/cell | do not bind | 8.79 counts/cell | 3.83 | 2290 nM | – | – | – | – | – | – | –
7 | Biotin-CDCRGDCFC-OH (cysteine pairing not given here) [reference compound] | – | – | – | – | – | – | – | – | – | – | – | – | 7.18 counts/cell | 28.725 | 250 nM
8 | Biotin-GCMNQHSSACG (cysteine pairing not given here) [3-B5] | – | – | 85.24 | 8.354 counts/cell | – | 3.817 counts/cell | 394.75 | 9.7 nM | – | – | 98 nM | – | – | – | –
